The source of these data is US20240408098A1, “COMBINATIONS OF KRAS G12D INHIBITORS WITH PI3Ka INHIBITORS AND RELATED METHODS OF TREATMENT” (MIRATI THERAPEUTICS, INC., priority 2021, published 2024).

Common to all, as to assay type: in vivo
For test [1], the system named is AsPC-1 pancreatic cancer cell line. Briefly: AsPC-1 xenograft in nude/nude mice, average tumor volumes. The note with it: for tumor growth inhibition: single agent; for Average Tumor Volumes: nude/nude mice, 15 mg/kg QD. On the procedure:
(§1) Immunocompromised nude/nude mice are inoculated in the right hind flank with cells harboring a KRas G12D mutation. When tumor volumes reach between 200-400 mm^3 in size, the mice are divided into four to five groups of 5 mice each. The first group is administered vehicle only. […] The fourth group is administered the single agent dose of the KRas G12D inhibitor using the twice daily for 2 sequential days followed by 5 days off schedule in combination with the single agent dose of Irinotecan. The treatment period varies from cell line to cell line but typically is between 15-22-days. Tumor volumes are measured using a caliper every two-three days and tumor volumes are calculated by the formula: […].
(§2) 20 to 25 nude/nude mice per study were inoculated in the right hind limb with 5×10^6 LS180 cells, AsPC-1 cells, GP2D cells, or Panc 02.03 cells. When tumor volumes reached ˜200 mm3-400 mm3 (study day 0) 5 mice in each of the groups were administered i.p. vehicle only (10% captisol in 50 mM citrate buffer pH 5.0), 30 mg/kg of Kras G12D inhibitor MRTX1133 (10% captisol in 50 mM citrate buffer, pH 5.0) either on the twice daily schedule or the twice daily for 2 consecutive days followed by 5 days off schedule, 15 mg/kg once daily of the BYL719 (0.5% methylcellulos) PI3Ka inhibitor, or 30 mg/kg of Kras G12D inhibitor on either schedule and BYL719. Tumor volumes, measured at pre-specified days, for the five mice per group were averaged and are reported for LS180, AsPC-1, GP2D, and Panc 02.03 in Tables 1, 2, 3, and 4, respectively.
30 nude/nude mice were inoculated with AsPC-1 cells in the hind right flank. When the tumors reached ˜300 mm^3 six treatment groups were established with 5 mice per group.

In test [2] the test system is GP2D colorectal cancer cell line. The test is described as follows: GP2D xenograft in nude/nude mice, average tumor volumes. On the procedure: as §1
as §2, with “respectively. […]” for “respectively.”

In test [3] the test system is PANC0203 pancreatic cancer cell line. The test is described as follows: Panc 02.03 xenograft in nude/nude mice, average tumor volumes. As to conditions: 15 mg/kg QD. On the procedure:
as §1, §2
20 nude/nude mice were inoculated with Panc 02.03 cells in the hind right flank. When the tumors reached ˜300 mm^3 four treatment groups were established with 5 mice per group.

In test [4] the test system is LS180 colon cancer cell line. Briefly: LS180 xenograft in nude/nude mice, average tumor volumes. The note with it: for Average Tumor Volumes: nude/nude mice, 15 mg/kg QD. On the procedure:
as §1, §2
25 nude/nude mice were inoculated with LS180 cells in the hind right flank. When the tumors reached ˜250 mm^3 five treatment groups were established with 5 mice per group.

Regarding `C#Cc1c(F)ccc2cc(O)cc(-c3ncc4c(N5C[C@H]6CC[C@@H](C5)N6)nc(OC[C@@]56CCCN5C[C@H](F)C6)nc4c3F)c12` [MRTX1133, 4-(4-((1R,5S)-3,8-diazabicyclo[3.2.1]octan-3-yl)-8-fluoro-2-(((2R,7aS)-2-fluorohexahydro-1H-pyrrolizin-7a-yl)methoxy)pyrido[4,3-d]pyrimidin-7-yl)-5-ethynyl-6-fluoronaphthalen-2-ol], the tumor growth inhibition in test [1] (30 mg/kg BID twice weekly, day 34) was 43%. Besides, the “Average Tumor Volumes” value in test [2] (30 mg/kg BID Daily i.p., Study Day 1) was found to be 300.778 mm^3; in test [2] (30 mg/kg BID Daily i.p., Study Day 7), 263.132 mm^3; in test [2] (30 mg/kg BID Daily i.p., Study Day 10), 237.628 mm^3; in test [2] (30 mg/kg BID Daily i.p., Study Day 14), 221.728 mm^3; in test [2] (30 mg/kg BID Daily i.p., Study Day 17) it was 221.788 mm^3; in test [2] (30 mg/kg BID Daily i.p., Study Day 21) it was 242.56 mm^3. Further, the “Average Tumor Volumes” value in test [2] (30 mg/kg BID Daily i.p., Study Day 26) was found to be 254.57 mm^3; in test [2] (30 mg/kg BID Daily i.p., Study Day 28) it was 307.03 mm^3; in test [2] (30 mg/kg BID Daily i.p., Study Day 31) it was 333.20 mm^3; in test [2] (30 mg/kg BID Daily i.p., Study Day 35), 358.75 mm^3.

For `Cc1nc(NC(=O)N2CCC[C@H]2C(N)=O)sc1-c1ccnc(C(C)(C)C(F)(F)F)c1` [BYL719, (2S)-N1-[4-Methyl-5-[2-(2,2,2-trifluoro-1,1-dimethylethyl)-4-pyridinyl]-2-thiazolyl]-1,2-pyrrolidinedicarboxamide], the “Average Tumor Volumes” value is recorded as 330.188 mm^3 in test [3] (Study Day 1); 341.414 mm^3 in test [3] (Study Day 4); 367.35 mm^3 in test [3] (Study Day 8); 487.664 mm^3 in test [3] (Study Day 11); 572.82 mm^3 in test [3] (Study Day 15); 680.306 mm^3 in test [3] (Study Day 18). Moreover, the “Average Tumor Volumes” value is listed as 774.992 mm^3 in test [3] (Study Day 22); 273.184 mm^3 in test [4] (Study Day 1); 501.45 mm^3 in test [4] (Study Day 4); 799.338 mm^3 in test [4] (Study Day 8); 1016.09 mm^3 in test [4] (Study Day 11); 1225.468 mm^3 in test [4] (Study Day 15). The “Average Tumor Volumes” value in test [1] (Study Day 1) was 331.29 mm^3; in test [1] (Study Day 6), 429.172 mm^3; in test [1] (Study Day 9) it was 473.138 mm^3; in test [1] (Study Day 13), 531.394 mm^3; in test [1] (Study Day 16), 580.446 mm^3; in test [1] (Study Day 20), 688.564 mm^3. Besides, the “Average Tumor Volumes” value in test [1] (Study Day 23) is listed as 742.98 mm^3; in test [1] (Study Day 27), 918.424 mm^3; in test [1] (Study Day 30), 1283 mm^3; in test [1] (Study Day 34), 1622 mm^3; in test [2] (15 mg/kg QD, Study Day 1), 307.604 mm^3; in test [2] (15 mg/kg QD, Study Day 7) it was 369.474 mm^3. Further, the “Average Tumor Volumes” value in test [2] (15 mg/kg QD, Study Day 10) is listed as 395.68 mm^3; in test [2] (15 mg/kg QD, Study Day 14), 467.526 mm^3; in test [2] (15 mg/kg QD, Study Day 17), 546.962 mm^3; in test [2] (15 mg/kg QD, Study Day 21) it was 681.056 mm^3; in test [2] (15 mg/kg QD, Study Day 26) it was 901.144 mm^3; in test [2] (15 mg/kg QD, Study Day 28), 1053.732 mm^3. Moreover, the “Average Tumor Volumes” value in test [2] (15 mg/kg QD, Study Day 31) worked out at 1102.87 mm^3; in test [2] (15 mg/kg QD, Study Day 35) it was 1202.89 mm^3. Moreover, the tumor growth inhibition in test [4] (15 mg/kg once daily, single agent, Day 15) came to 44%; in test [1] (15 mg/kg once daily, Day 34), 0%.
